Converted amounts (≈) assume the structure as drawn.
Key:
Staphylococcus sp. = assay: In vitro antibacterial evaluation: minimum inhibitory concentration (MIC), broth dilution method; assay type: cell-based; settings: for MIC Staphylococcus aureus (ATCC 29213): strain ATCC 29213; for MIC Staphylococcus aureus (GC 1131): strain GC 1131; for MIC Staphylococcus aureus (GC 3051): strain GC 3051; for MIC Staphylococcus aureus (GC 3053): strain GC 3053; for MIC Staphylococcus aureus (GC 4541): strain GC 4541; for MIC Staphylococcus aureus (GC 4542): strain GC 4542; for MIC Staphylococcus aureus-SMITH (GC 4543): strain GC 4543; for MIC Staphylococcus aureus (GC 4544): strain GC 4544; for MIC Staphylococcus aureus (GC 4545): strain GC 4545; for MIC Staphylococcus haemolyticus (GC 4546): strain GC 4546; for MIC Coagulase Negative Staphylococcus (GC 4547): strain GC 4547; for MIC Coagulase Negative Staphylococcus (GC 4548): strain GC 4548; for MIC Coagulase Negative Staphylococcus (GC 4549): strain GC 4549; for MIC Coagulase Negative Staphylococcus (GC 4551): strain GC 4551; for MIC Coagulase Negative Staphylococcus (GC 6257): strain GC 6257
Summary of the method: (§1)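 First, organisms are seeded at 5×10^5 CFU/mL into Muller-Hinton II […]. Next, antibiotic is applied across 64-0.06 μg/mL by broth dilution (NCCLS M7-A2). Finally, the lowest inhibitory concentration is recorded as MIC.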

Escherichia coli = assay: as above; assay type: cell-based; settings: 5×10^5 CFU/mL, 18 hours at 35° C.
Summary of the method: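 Broth dilution per NCCLS M7-A2 in Muller-Hinton II […], inoculum 5×10^5 CFU/mL, antibiotic tested over 64-0.06 μg/mL. MIC is taken as the lowest concentration that inhibits growth. Panel includes recent clinical isolates resistant to methicillin, penicillin and/or vancomycin.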

Enterococcus sp. = assay: as above; assay type: cell-based; settings: broth dilution, 5×10^5 CFU/mL, 18 hours at 35° C.
Summary of the method: as §1

Streptococcus sp. = assay: as above; assay type: cell-based; settings: broth dilution, 5×10^5 CFU/mL, 18 hours at 35° C.
Summary of the method: as §1

[1] = system: Enterococcus faecalis (GC 6189), vancomycin resistant strain; assay: Acute lethal infection in mice (ED50); assay type: in vivo; settings: female CD-1 mice, intraperitoneal challenge, intravenous dose 30 min. after infection, 7 day survival ratios
Summary of the method: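 ED50 derived from pooled 7-day survival in three separate experiments, five mice per dose level. Single intravenous dose 30 min after intraperitoneal infection of female CD-1 mice with enough bacteria to kill untreated animals in 24-48 h.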

[2] = broth dilution, 18 hours at 35° C.

Structure (SMILES): CC(c1ccccc1)C1NC(=O)CNC(=O)C(CO)NC(=O)C(C(O)C2CNC(=N)N2C2OC(CO)C(O)C(O)C2O)NC(=O)C(C(O)C2CNC(=N)N2)NC(=O)C(Cc2ccc(OC3OC(CO)C(OC4OC5COC(C6CCCC6)OC5C(O)C4O)C(O)C3O)cc2)NC1=O (stereo not drawn) [Example 117, Cyclo[glycyl-β-methylphenylalanyl-O-[4-O-[4,6-O-(cyclopentylethylene)hexopyranosyl]-hexopyranosyl]tyrosyl-3-(2-iminoimidazolidin-4-yl)seryl-3-(3-hexopyranosyl-2-iminoimidazolidin-4-yl)serylseryl]]
- MIC Staphylococcus aureus (ATCC 29213) (Staphylococcus sp.): 1 µg/mL (≈ 0.727 µM)
- MIC Staphylococcus aureus (ATCC 29213) (Staphylococcus sp.; [2]): 1 µg/mL (≈ 0.727 µM)
- MIC Staphylococcus aureus (GC 1131) (Staphylococcus sp.): 2 µg/mL (≈ 1.45 µM)
- MIC Staphylococcus aureus (GC 1131) (Staphylococcus sp.; [2]): 2 µg/mL (≈ 1.45 µM)
- MIC Staphylococcus aureus (GC 3051) (Staphylococcus sp.): 1 µg/mL (≈ 0.727 µM)
- MIC Staphylococcus aureus (GC 3051) (Staphylococcus sp.; [2]): 1 µg/mL (≈ 0.727 µM)
- MIC Staphylococcus aureus (GC 3053) (Staphylococcus sp.): 2 µg/mL (≈ 1.45 µM)
- MIC Staphylococcus aureus (GC 3053) (Staphylococcus sp.; [2]): 2 µg/mL (≈ 1.45 µM)
- MIC Staphylococcus aureus (GC 4541) (Staphylococcus sp.): 1 µg/mL (≈ 0.727 µM)
- MIC Staphylococcus aureus (GC 4541) (Staphylococcus sp.; [2]): 1 µg/mL (≈ 0.727 µM)
- MIC Staphylococcus aureus (GC 4542) (Staphylococcus sp.): 1 µg/mL (≈ 0.727 µM)
- MIC Staphylococcus aureus (GC 4542) (Staphylococcus sp.; [2]): 1 µg/mL (≈ 0.727 µM)
- MIC Staphylococcus aureus-SMITH (GC 4543) (Staphylococcus sp.; 18 hours at 35° C.): 1 µg/mL (≈ 0.727 µM)
- MIC Staphylococcus aureus-SMITH (GC 4543) (Staphylococcus sp.; [2]): 1 µg/mL (≈ 0.727 µM)
- MIC Staphylococcus aureus (GC 4544) (Staphylococcus sp.): 2 µg/mL (≈ 1.45 µM)
- MIC Staphylococcus aureus (GC 4544) (Staphylococcus sp.; [2]): 2 µg/mL (≈ 1.45 µM)
- MIC Staphylococcus aureus (GC 4545) (Staphylococcus sp.): 1 µg/mL (≈ 0.727 µM)
- MIC Staphylococcus aureus (GC 4545) (Staphylococcus sp.; [2]): 1 µg/mL (≈ 0.727 µM)
- MIC Staphylococcus haemolyticus (GC 4546) (Staphylococcus sp.): 1 µg/mL (≈ 0.727 µM)
- MIC Staphylococcus haemolyticus (GC 4546) (Staphylococcus sp.; [2]): 1 µg/mL (≈ 0.727 µM)
- MIC Coagulase Negative Staphylococcus (GC 4547) (Staphylococcus sp.): 1 µg/mL (≈ 0.727 µM)
- MIC Coagulase Negative Staphylococcus (GC 4547) (Staphylococcus sp.; [2]): 1 µg/mL (≈ 0.727 µM)
- MIC Coagulase Negative Staphylococcus (GC 4548) (Staphylococcus sp.): 1 µg/mL (≈ 0.727 µM)
- MIC Coagulase Negative Staphylococcus (GC 4548) (Staphylococcus sp.; [2]): 1 µg/mL (≈ 0.727 µM)
- MIC Coagulase Negative Staphylococcus (GC 4549) (Staphylococcus sp.): 1 µg/mL (≈ 0.727 µM)
- MIC Coagulase Negative Staphylococcus (GC 4549) (Staphylococcus sp.; [2]): 1 µg/mL (≈ 0.727 µM)
- MIC Coagulase Negative Staphylococcus (GC 4551) (Staphylococcus sp.): 2 µg/mL (≈ 1.45 µM)
- MIC Coagulase Negative Staphylococcus (GC 4551) (Staphylococcus sp.; [2]): 2 µg/mL (≈ 1.45 µM)
- MIC Coagulase Negative Staphylococcus (GC 6257) (Staphylococcus sp.): 0.5 µg/mL (≈ 0.364 µM)
- MIC Coagulase Negative Staphylococcus (GC 6257) (Staphylococcus sp.; [2]): 0.5 µg/mL (≈ 0.364 µM)
- MIC Escherichia coli (ATCC 25922) (Escherichia coli): 64 µg/mL (≈ 46.5 µM)
- MIC Escherichia coli (GC 4559) (Escherichia coli): 32 µg/mL (≈ 23.3 µM)
- MIC Escherichia coli (GC 4560) (Escherichia coli): 1 µg/mL (≈ 0.727 µM)
- MIC Enterococccus avium (GC 4558) (Enterococcus sp.): 4 µg/mL (≈ 2.91 µM)
- MIC Enterococccus faecalis (ATCC 29212) (Enterococcus sp.): 2 µg/mL (≈ 1.45 µM)
- MIC Enterococccus faecalis (GC 2691) (Enterococcus sp.): 4 µg/mL (≈ 2.91 µM)
- MIC Enterococccus faecalis (GC 3059) (Enterococcus sp.): 4 µg/mL (≈ 2.91 µM)
- MIC Enterococccus faecalis (GC 4552) (Enterococcus sp.): 4 µg/mL (≈ 2.91 µM)
- MIC Enterococccus faecalis (GC 4553) (Enterococcus sp.): 4 µg/mL (≈ 2.91 µM)
- MIC Enterococccus faecalis (GC 4554) (Enterococcus sp.): 2 µg/mL (≈ 1.45 µM)
- MIC Enterococccus faecalis (GC 6189) (Enterococcus sp.): 2 µg/mL (≈ 1.45 µM)
- MIC Enterococccus faecium (GC 2243) (Enterococcus sp.): 2 µg/mL (≈ 1.45 µM)
- MIC Enterococccus faecium (GC 4556) (Enterococcus sp.): 2 µg/mL (≈ 1.45 µM)
- MIC Enterococccus faecium (GC 4557) (Enterococcus sp.): 2 µg/mL (≈ 1.45 µM)
- MIC Enterococcus faecalis (GC 2242) (Enterococcus sp.): 2 µg/mL (≈ 1.45 µM)
- MIC Streptococcus agalactiae (GC 4564) (Streptococcus sp.): 0.25 µg/mL (≈ 0.182 µM)
- MIC Streptococcus pneumoniae (GC 1894) (Streptococcus sp.): <0.06 µg/mL
- MIC Streptococcus pneumoniae (GC 4565) (Streptococcus sp.): 0.12 µg/mL (≈ 0.0872 µM)
- MIC Streptococcus pneumonine (ATCC 6301) (Streptococcus sp.): <0.06 µg/mL
- MIC Streptococcus pyogenes (GC 4563) (Streptococcus sp.): 0.25 µg/mL (≈ 0.182 µM)
- median effective dose (ED50), Enterococcus faecalis (GC 6189) [1]: 0.38 mg/kg

— patent publication US8247211B2, “Glycopeptide antibiotics” (American Cyanamid Company, priority 2001, dated 2012)
